Test results: ChEMBL document CHEMBL5223175, “Discovery of novel 2-oximino-2-indolylacetamide derivatives as potent anticancer agents capable of inducing cell autophagy and ferroptosis” (Bioorg Med Chem, 2023)
pIC50: −log10 of the molar value. Active and inactive are the calls of the source. The calls are words filed in the database; no cut-off is given here.

Tests used:
5-8F [1] = experiment: Antiproliferative activity against human 5-8F cells assessed as cell viability at 80 uM incubated for 72 hrs by CCK-8 assay; format: functional; settings: read-out: Activity
5-8F [2] = experiment: Antiproliferative activity against human 5-8F cells assessed as reduction in cell viability incubated for 72 hrs by CCK-8 assay; format: functional, cell-based
CAL-27 [3] = experiment: Antiproliferative activity against human CAL-27 cells assessed as reduction in cell viability incubated for 72 hrs by CCK-8 assay; format: functional, cell-based; settings: CAL-27, 72 h
5-8F [4] = experiment: Antiproliferative activity against human 5-8F cells assessed as reduction in cell viability at 5 to 40 uM incubated for 48 hrs by CCK-8 assay; format: functional, cell-based; settings: dose 5-40 µM
CAL-27 [5] = experiment: Antiproliferative activity against human CAL-27 cells assessed as reduction in cell viability at 5 to 40 uM incubated for 48 hrs by CCK-8 assay; format: functional, cell-based; settings: dose 5-40 µM
5-8F [6] = experiment: Antiproliferative activity against human 5-8F cells assessed as reduction in Ki67 expression at 10 to 30 uM by Western blotting analysis; format: functional, cell-based; settings: dose 10-30 µM
CAL-27 [7] = experiment: Antiproliferative activity against human CAL-27 cells assessed as reduction in Ki67 expression at 10 to 30 uM by Western blotting analysis; format: functional, cell-based; settings: dose 10-30 µM
5-8F [8] = experiment: Induction of apoptosis in human 5-8F cells assessed as appearance of rounded cells incubated for 48 hrs by microscopic analysis; format: functional, cell-based; settings: dose 10-30 µM
5-8F [9] = experiment: Induction of apoptosis in human 5-8F cells assessed as appearance of floating cells incubated for 48 hrs by microscopic analysis; format: functional, cell-based; settings: dose 10-30 µM
5-8F [10] = experiment: Induction of apoptosis in human 5-8F cells assessed as increase in dead cells incubated for 48 hrs by microscopic analysis; format: functional, cell-based; settings: dose 10-30 µM
5-8F [11] = experiment: Induction of apoptosis in human 5-8F cells at 30 uM incubated for 48 hrs by Annexin V-FITC and PI staining based flow cytometry analysis; format: functional
5-8F [12] = experiment: Induction of apoptosis in human 5-8F cells assessed as downregulation of procaspase-3 expression at 10 to 30 uM incubated for 48 hrs by Western blotting analysis; format: functional, cell-based; settings: dose 10-30 µM
5-8F [13] = experiment: Induction of apoptosis in human 5-8F cells assessed as downregulation of Bcl-2 expression at 10 to 30 uM incubated for 48 hrs by Western blotting analysis; format: functional, cell-based; settings: dose 10-30 µM
5-8F [14] = experiment: Induction of apoptosis in human 5-8F cells assessed as upregulation of p53 expression at 10 to 30 uM incubated for 48 hrs by Western blotting analysis; format: functional, cell-based; settings: dose 10-30 µM
5-8F [15] = experiment: Induction of apoptosis in human 5-8F cells assessed as upregulation of Bax expression at 10 to 30 uM incubated for 48 hrs by Western blotting analysis; format: functional, cell-based; settings: dose 10-30 µM
5-8F [16] = experiment: Induction of apoptosis in human 5-8F cells assessed as upregulation of cleaved PARP expression at 10 to 30 uM incubated for 48 hrs by Western blotting analysis; format: functional, cell-based; settings: dose 10-30 µM
5-8F [17] = experiment: Induction of autophagy in human 5-8F cells assessed as increase in LC3 puncta accumulation at 30 uM incubated for 48 hrs by confocal microscopy analysis; format: functional, cell-based
5-8F [18] = experiment: Induction of autophagy in human 5-8F cells assessed as appearance of autophagic vacuoles at 30 uM incubated for 48 hrs by TEM analysis; format: functional, cell-based
5-8F [19] = experiment: Induction of autophagy in human 5-8F cells assessed as increase in LC3I to LC3II conversion at 10 to 30 uM by Western blotting analysis; format: functional, cell-based; settings: dose 10-30 µM, time 48.0 hrs
5-8F [20] = experiment: Induction of autophagy in human 5-8F cells assessed as increase in Beclin-1 expression at 10 to 30 uM by Western blotting analysis; format: functional, cell-based; settings: dose 10-30 µM
5-8F [21] = experiment: Induction of autophagy in human 5-8F cells assessed as decrease in p62 expression at 10 to 30 uM by Western blotting analysis; format: functional, cell-based; settings: dose 10-30 µM
5-8F [22] = experiment: Induction of ferroptosis in human 5-8F cells assessed as appearance of mitochondrial pyknosis at 30 uM incubated for 48 hrs by TEM analysis; format: functional, cell-based
5-8F [23] = experiment: Induction of ferroptosis in human 5-8F cells assessed as increase in membrane density at 30 uM incubated for 48 hrs by TEM analysis; format: functional, cell-based
5-8F [24] = experiment: Induction of ferroptosis in human 5-8F cells assessed as appearance of […] at 30 uM incubated for 48 hrs by TEM analysis; format: functional, cell-based
5-8F [25] = experiment: Induction of ferroptosis in human 5-8F cells assessed as decrease in GPx4 expression at 10 to 30 uM incubated for 48 hrs by Western blotting analysis; format: functional, cell-based; settings: dose 10-30 µM
5-8F [26] = experiment: Induction of ferroptosis in human 5-8F cells assessed as decrease in GPx4 expression at 10 to 30 uM incubated for 48 hrs in presence of Fer-1 by Western blotting analysis; format: functional, cell-based; settings: dose 10-30 µM
5-8F [27] = experiment: Induction of ferroptosis in human 5-8F cells assessed as decrease in GPx4 expression at 10 to 30 uM incubated for 48 hrs in presence of Era by Western blotting analysis; format: functional, cell-based; settings: dose 10-30 µM
5-8F [28] = experiment: Induction of ROS generation in human 5-8F cells at 30 uM pretreated with NAC for 2 hrs followed by compound addition and measured after 48 hrs by DCFH-DA staining based flow cytometry analysis; format: functional, cell-based
5-8F [29] = experiment: Induction of ROS generation in human 5-8F cells at 10 to 30 uM after 48 hrs by fluorescence microscopy analysis; format: functional, cell-based; settings: dose 10-30 µM
5-8F [30] = experiment: Induction of lipid peroxidation in human 5-8F cells at 30 uM after 48 hrs by BODIPY C11 staining based fluorescence microscopy analysis; format: functional, cell-based
5-8F [31] = experiment: Induction of lipid peroxidation in human 5-8F cells at 30 uM after 48 hrs by flow cytometry analysis; format: functional, cell-based
5-8F [32] = experiment: Upregulation of p38 MAPK phosphorylation in human 5-8F cells at 10 to 30 uM by Western blotting analysis; format: functional, cell-based; settings: dose 10-30 µM
5-8F [33] = experiment: Downregulation of p-ERK1/2 in human 5-8F cells at 10 to 30 uM by Western blotting analysis; format: functional, cell-based; settings: dose 10-30 µM
5-8F [34] = experiment: Downregulation of STAT3 phosphorylation in human 5-8F cells at 10 to 30 uM incubated for 48 hrs by Western blotting analysis; format: functional, cell-based; settings: dose 10-30 µM
5-8F [35] = experiment: Antitumor activity against human 5-8F cells xenografted in BALB/c mouse assessed as tumor growth inhibition at 10 to 20 mg/kg, ip administered daily; format: functional, organism-based; settings: dose 10-20 mg/kg
5-8F [36] = experiment: Antitumor activity against human 5-8F cells xenografted in BALB/c mouse assessed as decrease in tumor weight at 10 to 20 mg/kg, ip administered daily; format: functional, organism-based; settings: dose 10-20 mg/kg
5-8F [37] = experiment: Antitumor activity against human 5-8F cells xenografted in BALB/c mouse assessed as decrease in Ki67 expression at 10 to 20 mg/kg, ip administered daily; format: functional, organism-based; settings: dose 10-20 mg/kg
[38] = Toxicity in BALB/c mouse xenografted with human 5-8F cells assessed as change in lung morphology at 10 to 20 mg/kg, ip administered daily by H and E staining based assay; format: organism-based; settings: in vivo, dose 10-20 mg/kg
[39] = Toxicity in BALB/c mouse xenografted with human 5-8F cells assessed as change in liver morphology at 10 to 20 mg/kg, ip administered daily by H and E staining based assay; format: organism-based; settings: in vivo, dose 10-20 mg/kg
[40] = Toxicity in BALB/c mouse xenografted with human 5-8F cells assessed as change in kidney morphology at 10 to 20 mg/kg, ip administered daily by H and E staining based assay; format: organism-based; settings: in vivo, dose 10-20 mg/kg

Question: What does the source list for `Cn1cc(/C(=N\O)C(=O)Nc2ccc(Cl)cc2)c2ccccc21`?
Answer: viability at 80 µM (5-8F [1]): 7.8%; pIC50 (5-8F [2]): 5.03; pIC50 (CAL-27 [3]): 4.86; Activity (5-8F [4]): Active; Activity (CAL-27 [5]): Active; Activity (5-8F [6]): Active; Activity (CAL-27 [7]): Active; Activity (5-8F [8]): Dose-Dependent Effect; Activity (5-8F [9]): Dose-Dependent Effect; Activity (5-8F [10]): Dose-Dependent Effect; Activity (5-8F [11]): 29.1%; Activity (5-8F [12]): Active; Activity (5-8F [13]): Active; Activity (5-8F [14]): Active; Activity (5-8F [15]): Active; Activity (5-8F [16]): Active; Activity (5-8F [17]): Active; Activity (5-8F [18]): Active; Activity (5-8F [19]): Active; Activity (5-8F [20]): Active; Activity (5-8F [21]): Active; Activity (5-8F [22]): Active; Activity (5-8F [23]): Active; Activity (5-8F [24]): Active; Activity (5-8F [25]): Active; Activity (5-8F [26]): inactive; Activity (5-8F [27]): Active; Activity (5-8F [28]): inactive; Activity (5-8F [29]): Active; Activity (5-8F [30]): Active; Activity (5-8F [31]): Active; Activity (5-8F [32]): Active; Activity (5-8F [33]): Active; Activity (5-8F [34]): Active; Activity (5-8F [35]): Active; Activity (5-8F [36]): Active; Activity (5-8F [37]): Active; Activity [38]: Non-Toxic; Activity [39]: Non-Toxic; Activity [40]: Non-Toxic
